This passage reports relative viability results from the supplement of paper PMC10307832.

In one test the test system is 201T. Briefly: relative viability (nuclei count vs DMSO), 5 days (fraction); higher = more cells survive. To be noted: first compound 0.08 µM. The gist of the method:
(§1)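 Relative viability is defined as nuclei in treated wells over nuclei in vehicle wells. Duplicate plates were run and medians reported. Lung cancer cell lines in 1536-well plates were dosed by pin tool one day after seeding, with one drug or with a fixed anchor-drug dose plus five library-drug doses (not always all listed) in √10 steps, and nuclei were counted after 5 days.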
For `CCCCCCCCCCCC1=C(O)C(=O)C=C(O)C1=O` [Embelin] + N=C(N)NC(=N)NCCc1ccccc1 [Phenformin] (partner 250 µM), the relative viability came to 0.432.

Regarding `CCCCCCCCCCCC1=C(O)C(=O)C=C(O)C1=O` [Embelin] + O=C(c1cc(Cc2n[nH]c(=O)c3ccccc23)ccc1F)N1CCN(C(=O)C2CC2)CC1 [Olaparib] (partner 8 µM), the relative viability worked out at 0.826.

As for `CCCCCCCCCCCC1=C(O)C(=O)C=C(O)C1=O` [Embelin] + CC(=O)Nc1cccc(-n2c(=O)n(C3CC3)c(=O)c3c(Nc4ccc(I)cc4F)n(C)c(=O)c(C)c32)c1 [Trametinib] (partner 0.02 µM), the relative viability is 0.698.

For the compound `CCCCCCCCCCCC1=C(O)C(=O)C=C(O)C1=O` [Embelin] + Nc1ncn([C@H]2C[C@H](O)[C@@H](CO)O2)c(=O)n1 [Decitabine] (partner 2 µM), the relative viability came to 0.82.

Compound `CCCCCCCCCCCC1=C(O)C(=O)C=C(O)C1=O` [Embelin] + NC(=O)Nc1cc(-c2cccc(F)c2)sc1C(=O)N[C@H]1CCCNC1 [AZD7762] (partner 0.2 µM) displayed a relative viability of 0.713.

The test is the same for the next values; noted with them: first compound 0.8 µM.
Consider `CCCCCCCCCCCC1=C(O)C(=O)C=C(O)C1=O` [Embelin] + N=C(N)NC(=N)NCCc1ccccc1 [Phenformin] (partner 250 µM), for which the relative viability is 0.49.

Compound `CCCCCCCCCCCC1=C(O)C(=O)C=C(O)C1=O` [Embelin] + O=C(c1cc(Cc2n[nH]c(=O)c3ccccc23)ccc1F)N1CCN(C(=O)C2CC2)CC1 [Olaparib] (partner 8 µM) showed a relative viability of 0.875.

`CCCCCCCCCCCC1=C(O)C(=O)C=C(O)C1=O` [Embelin] + CC(=O)Nc1cccc(-n2c(=O)n(C3CC3)c(=O)c3c(Nc4ccc(I)cc4F)n(C)c(=O)c(C)c32)c1 [Trametinib] (partner 0.02 µM) had a relative viability of 0.726.

For the compound `CCCCCCCCCCCC1=C(O)C(=O)C=C(O)C1=O` [Embelin] + Nc1ncn([C@H]2C[C@H](O)[C@@H](CO)O2)c(=O)n1 [Decitabine] (partner 2 µM), the relative viability worked out at 0.884.

`CCCCCCCCCCCC1=C(O)C(=O)C=C(O)C1=O` [Embelin] + NC(=O)Nc1cc(-c2cccc(F)c2)sc1C(=O)N[C@H]1CCCNC1 [AZD7762] (partner 0.2 µM) registered a relative viability of 0.634.

The test is the same for the next values; noted with them: first compound 2.53 µM.
With `CCCCCCCCCCCC1=C(O)C(=O)C=C(O)C1=O` [Embelin] + N=C(N)NC(=N)NCCc1ccccc1 [Phenformin] (partner 250 µM), the relative viability was 0.482.

Regarding `CCCCCCCCCCCC1=C(O)C(=O)C=C(O)C1=O` [Embelin] + O=C(c1cc(Cc2n[nH]c(=O)c3ccccc23)ccc1F)N1CCN(C(=O)C2CC2)CC1 [Olaparib] (partner 8 µM), the relative viability was found to be 0.853.

`CCCCCCCCCCCC1=C(O)C(=O)C=C(O)C1=O` [Embelin] + CC(=O)Nc1cccc(-n2c(=O)n(C3CC3)c(=O)c3c(Nc4ccc(I)cc4F)n(C)c(=O)c(C)c32)c1 [Trametinib] (partner 0.02 µM): the relative viability was 0.731.

In turn, `CCCCCCCCCCCC1=C(O)C(=O)C=C(O)C1=O` [Embelin] + Nc1ncn([C@H]2C[C@H](O)[C@@H](CO)O2)c(=O)n1 [Decitabine] (partner 2 µM) had a relative viability of 0.853.

`CCCCCCCCCCCC1=C(O)C(=O)C=C(O)C1=O` [Embelin] + NC(=O)Nc1cc(-c2cccc(F)c2)sc1C(=O)N[C@H]1CCCNC1 [AZD7762] (partner 0.2 µM) yielded a relative viability of 0.67.

Still in this test, the particulars now being: first compound 8 µM.
Consider `CCCCCCCCCCCC1=C(O)C(=O)C=C(O)C1=O` [Embelin] + N=C(N)NC(=N)NCCc1ccccc1 [Phenformin] (partner 250 µM), for which the relative viability stood at 0.385.

As to `CCCCCCCCCCCC1=C(O)C(=O)C=C(O)C1=O` [Embelin] + O=C(c1cc(Cc2n[nH]c(=O)c3ccccc23)ccc1F)N1CCN(C(=O)C2CC2)CC1 [Olaparib] (partner 8 µM), the relative viability came to 0.902.

Consider `CCCCCCCCCCCC1=C(O)C(=O)C=C(O)C1=O` [Embelin] + CC(=O)Nc1cccc(-n2c(=O)n(C3CC3)c(=O)c3c(Nc4ccc(I)cc4F)n(C)c(=O)c(C)c32)c1 [Trametinib] (partner 0.02 µM), for which the relative viability was found to be 0.731.

In the case of `CCCCCCCCCCCC1=C(O)C(=O)C=C(O)C1=O` [Embelin] + Nc1ncn([C@H]2C[C@H](O)[C@@H](CO)O2)c(=O)n1 [Decitabine] (partner 2 µM), the relative viability came out at 0.831.

The compound `CCCCCCCCCCCC1=C(O)C(=O)C=C(O)C1=O` [Embelin] + NC(=O)Nc1cc(-c2cccc(F)c2)sc1C(=O)N[C@H]1CCCNC1 [AZD7762] (partner 0.2 µM) gave a relative viability of 0.61.

In the next test the test system is BEN. Described as above. To be noted: first compound 0.08 µM. The gist of the method: as §1
`CCCCCCCCCCCC1=C(O)C(=O)C=C(O)C1=O` [Embelin] + N=C(N)NC(=N)NCCc1ccccc1 [Phenformin] (partner 250 µM) gave a relative viability of 0.267.

As to `CCCCCCCCCCCC1=C(O)C(=O)C=C(O)C1=O` [Embelin] + O=C(c1cc(Cc2n[nH]c(=O)c3ccccc23)ccc1F)N1CCN(C(=O)C2CC2)CC1 [Olaparib] (partner 8 µM), the relative viability came to 1.15.

Compound `CCCCCCCCCCCC1=C(O)C(=O)C=C(O)C1=O` [Embelin] + CC(=O)Nc1cccc(-n2c(=O)n(C3CC3)c(=O)c3c(Nc4ccc(I)cc4F)n(C)c(=O)c(C)c32)c1 [Trametinib] (partner 0.02 µM) showed a relative viability of 1.11.

For the compound `CCCCCCCCCCCC1=C(O)C(=O)C=C(O)C1=O` [Embelin] + Nc1ncn([C@H]2C[C@H](O)[C@@H](CO)O2)c(=O)n1 [Decitabine] (partner 2 µM), the relative viability was found to be 0.717.

`CCCCCCCCCCCC1=C(O)C(=O)C=C(O)C1=O` [Embelin] + NC(=O)Nc1cc(-c2cccc(F)c2)sc1C(=O)N[C@H]1CCCNC1 [AZD7762] (partner 0.2 µM) displayed a relative viability of 0.63.

Staying with this test, now noted: first compound 0.8 µM.
Take `CCCCCCCCCCCC1=C(O)C(=O)C=C(O)C1=O` [Embelin] + N=C(N)NC(=N)NCCc1ccccc1 [Phenformin] (partner 250 µM): the relative viability is 0.285.

In turn, `CCCCCCCCCCCC1=C(O)C(=O)C=C(O)C1=O` [Embelin] + O=C(c1cc(Cc2n[nH]c(=O)c3ccccc23)ccc1F)N1CCN(C(=O)C2CC2)CC1 [Olaparib] (partner 8 µM) came in with a relative viability of 1.37.

In turn, `CCCCCCCCCCCC1=C(O)C(=O)C=C(O)C1=O` [Embelin] + CC(=O)Nc1cccc(-n2c(=O)n(C3CC3)c(=O)c3c(Nc4ccc(I)cc4F)n(C)c(=O)c(C)c32)c1 [Trametinib] (partner 0.02 µM) registered a relative viability of 1.16.

The compound `CCCCCCCCCCCC1=C(O)C(=O)C=C(O)C1=O` [Embelin] + Nc1ncn([C@H]2C[C@H](O)[C@@H](CO)O2)c(=O)n1 [Decitabine] (partner 2 µM) displayed a relative viability of 0.813.
